{"source": "paper PMC6279743", "about": "“A small molecule ApoE4-targeted therapeutic candidate that normalizes sirtuin 1 levels and improves cognition in an Alzheimer’s disease mouse model” (Scientific Reports, 2018)", "key": {"[1]": {"system": "SirT2 levels in N2a-E4 cells", "test": "SirT2 sandwich ELISA in N2a-E4 cells", "type": "cell-based, murine", "conditions": "A03 at 5 or 50 μM vs DMSO"}, "[2]": {"system": "N2a-E4 cells", "test": "Lysate protein concentration (Bradford assay)", "type": "cell-based, murine", "conditions": "A03 at 5 or 50 μM", "experimental": "Compound in medium (50 µL, 2X) was loaded into a 96-well plate, then 4 × 10^4 cells were added to each well; 24 hrs later the medium was removed and cells lysed. Lysate protein concentration was determined using the Bradford assay according to the manufacturer’s instructions. SirT1 was determined in lysates using the SirT1 AlphaLISA as described above."}, "[3]": {"test": "Pharmacokinetics after subcutaneous (SQ) injection in mice", "type": "in vivo"}, "[4]": {"system": "APP cleavage products in E4FAD mice", "test": "Second oral 56-day study, APP-derived cleavage products in hippocampus", "type": "in vivo", "conditions": "oral 56 days, vs vehicle", "experimental": "E4FAD mice were 10–12 mo and NTg mice 7–9 mo at the start of the study.\n(§1) Mice were euthanized and blood/tissues collected 2 hrs after dosing on Day 56 by the method described above for PK. Hip and FrCx were collected for analysis of SirT1, sAPPα, and Aβ1-42 levels by AlphaLISA. For Aβ1-42 the Perkin Elmer kit AL276C was used. Protein concentrations were determined using the Bradford protein assay. The sAPPα and sAPPβ AlphaLISAs were similar to the SirT1 AlphaLISA (see Supplementary Fig. S3) but the former uses anti-sAPPα antibody AF1168 and 2B3-biotinylated antibodies and the latter an anti-sAPPβ antibody (IBL Cat. #18957) and an anti-N-terminal APP antibody (R&D Systems AF1168) instead of anti-SirT1 antibodies. Brain tissue and plasma were sent to IAS for A03 level analysis."}, "[5]": {"system": "E4FAD mice", "test": "Y maze Forced Alternation in 56-day study", "type": "in vivo", "conditions": "minute 1 or by 5 minutes", "experimental": "Study mice also underwent Forced Alternation (FA) tests in a Y maze apparatus[74],[75]. Details of the method can be found in Supplementary Methods. Briefly, individual test mice are prevented from entering one of three arms of the maze in the first 5 minute trial and after 30 minutes is returned to maze wherein the blocked arm is available. Time in Novel Arm C [%] was defined as the time spent in the novel arm divided by the time spent in all arms during the first minute.\nA small molecule ApoE4-targeted therapeutic candidate that normalizes sirtuin 1 levels and Improves cognition in an Alzheimer’s disease mouse model\nJesus Campagna, Patricia Spilman, Barbara Jagodzinska, Dongsheng Bai, Asa Hatami, Chunni Zhu, Tina Bilousova, Michael Jun, Chris Jean Elias, Johnny Pham, Gregory Cole, Mary Jo LaDu, Michael E. Jung, Dale E. Bredesen, and […]\nConfirmation assay in A172-E4 cells. […]\nCells were incubated with the compound for 60 hrs, then cell culture medium (for sAPPα) and cells (lysates for SirT1) were harvested and levels of sAPPα and SirT1 determined by AlphaLISA. […]\nPAMPA. […] The parameters determined are Tr = retention time of compound; KIAM= (Tr-T0)/T0; T0= is the delay time of the column, determined by use of 100 µg/mL citric acid) and was T0= 1.24 min; and (KIAM/MW4)*10-(10). […]\nForced Alternation. […] An arm entry was recorded when all 4 paws of the mouse entered the arm. […]"}, "[6]": {"test": "Brain compound levels 2 hours after the last dose in efficacy studies", "type": "in vivo, mice", "experimental": "Mice were euthanized and blood/tissues collected 2 hrs after dosing on day 28 by the method described above for PK. Frontal and parietal cortices (FrCx and PtCx, respectively), as well as the remaining brain tissue, from individual mice were dissected, snap frozen on dry ice, and stored at −80 °C. Plasma samples and the brain tissue minus the FrCx and PtCx (the ‘rest’) from all compound-treated mice were sent to IAS for compound level analysis as described above.\nMice were euthanized and blood/tissues collected 2 hrs after dosing on Day 25 by the method described above for PK. FrCx, PtCx, and hippocampi (Hip) were collected from all mice for SirT1 and sAPPα level determination by AlphaLISA. Protein concentration was determined using a Bradford protein assay. Brain and plasma levels of A03 were determined at IAS.\nas §1"}}, "note": "Like-named read-outs stand apart in the source and are kept apart here."}
{"compound": "CC(N)C(=O)OC(C)(C)Cc1ccc(Cl)cc1", "note": "(stereo not drawn) [A03, alaproclate]", "values": [{"measurement": "SirT2 (normalized to protein)", "setting": "[1]", "value": "not significantly altered"}, {"measurement": "Protein concentration in cell lysates (viability surrogate)", "setting": "[2]", "value": "did not increase protein concentration"}, {"measurement": "factor by which brain levels after SQ exceed those after oral delivery", "setting": "[3]; 10 mg/Kg SQ vs 10 mg/Kg oral", "value": "4 to 5"}, {"measurement": "AUC plasma", "setting": "[3]; mice, SQ 10 mg/kg, unit as printed in Fig. 4d legend", "value": 1520, "unit": "ng·h/mL"}, {"measurement": "Tmax", "setting": "[3]; mouse, brain, sc, mice, SQ 10 mg/kg, n = 1", "value": 2, "unit": "h"}, {"measurement": "Cmax", "setting": "[3]; mouse, brain, sc, mice, SQ 10 mg/kg, n = 1, read-out: Cmax in brain", "value": "~2600", "unit": "ng/g"}, {"measurement": "Cmax", "setting": "[3]; mouse, brain, subcutaneous, mice, SQ 10 mg/Kg, read-out: Cmax in brain as molar concentration", "value": "~10", "unit": "µM"}, {"measurement": "AUC", "setting": "[3]; mouse, plasma, subcutaneous, mice, SQ 10 mg/kg", "value": 1520, "unit": "ng·h/mL"}, {"measurement": "Aβ1-42 in the Hip", "setting": "[4]", "value": "lower than E4FAD Veh, but not significantly so"}, {"measurement": "sAPPα in the Hip", "setting": "[4]", "value": "only slightly higher"}, {"measurement": "sAPPβ in the Hip", "setting": "[4]", "value": "not changed"}, {"measurement": "Y maze FA, entries into the Novel Arm C", "setting": "[5]", "value": "no significant differences amongst groups"}, {"measurement": "Brain level 2 hours after the last dose", "setting": "[6]; 25-day study, oral 40 mg/kg/day, n = 12", "value": "above 2000 n/g"}, {"measurement": "concentration at 2 h", "setting": "[6]; E4FAD, mouse, brain, 56-day study, oral 40 mg/kg/day, n = 16, read-out: Brain level 2 hours after the last dose", "value": "~700", "unit": "ng/g"}, {"measurement": "Brain levels 2 hours after the last dose, E1 vs A03", "setting": "[6]; pilot study, SQ 10 mg/kg/day, 28 days, n = 8", "value": "slightly higher"}]}
